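Dose response: 5 concentrations. Exposure: 48 h. Format: 96-well plates. Endpoint: linear interpolation; highest concentration if not reached. The concentration for full growth arrest is given as TGI.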
What was measured:
Test in all cases: NCI anticancer screen, dose series, 48 h
[1] = system: HOP-92 NSCLC
[2] = system: SNB-75 CNS
[3] = system: OVCAR-3 ovarian
[4] = system: MDA-MB-231 breast
[5] = system: SN12C renal
[6] = system: DU-145 prostate
[7] = system: LOX IMVI melanoma
[8] = system: MDA-MB-435
[9] = system: SW-620 colon
[10] = system: RPMI-8226 leukemia
[11] = system: MCF7 breast
[12] = system: U251 CNS
[13] = system: BT-549 breast
[14] = system: NCI-H522 lung
[15] = system: HCT-116 colon
[16] = system: CAKI-1 renal
[17] = system: PC-3 prostate
[18] = system: EKVX NSCLC
[19] = system: MOLT-4 leukemia

SMILES	TGI [1] [µM]	TGI [2] [µM]	TGI [3] [µM]	TGI [4] [µM]	TGI [5] [µM]	TGI [6] [µM]	TGI [7] [µM]	TGI [8] [µM]	TGI [9] [µM]	TGI [10] [µM]	TGI [11] [µM]	TGI [12] [µM]	TGI [13] [µM]	TGI [14] [µM]	TGI [15] [µM]	TGI [16] [µM]	TGI [17] [µM]	TGI [18] [µM]	TGI [19] [µM]
COc1ccc(/C=C2\N=C(N3CCCCC3)NC2=O)cc1	> 100	> 100	> 100	> 100	> 100	> 100	> 100	> 100	> 100	> 100	> 100	> 100	> 100	> 100	> 100	> 100	> 100	> 100	> 100
CS(=O)(=O)C(C#N)c1nc2ccccc2nc1Cl (stereo not given)	> 100	> 100	> 100	> 100	> 100	> 100	> 100	> 100	> 100	> 100	> 100	> 100	> 100	> 100	> 100	> 100	> 100	> 100	> 100
CS(=O)(=O)Nc1ccc2ccccc2c1-c1c(NS(C)(=O)=O)ccc2ccccc12	> 25	> 25	> 25	> 25	> 25	> 25	> 25	> 25	> 25	> 25	> 25	> 25	> 25	> 25	> 25	> 25	> 25	> 25	> 25
CC1(C)N/C(=C\[N+](=O)[O-])C(C)(C)N1O	> 10	> 10	> 10	> 10	> 10	> 10	> 10	> 10	> 10	> 10	> 10	> 10	> 10	> 10	> 10	> 10	> 10	> 10	> 10
O=C(/C=C/c1ccc(O)c(O)c1)OCC(OC(=O)/C=C/c1ccc(O)c(O)c1)C(=O)O (stereo not given)	> 100	> 100	> 100	> 100	> 100	> 100	> 100	> 100	> 100	> 100	> 100	> 100	> 100	> 100	> 100	> 100	> 100	> 100	> 100
